Test results reported in patent publication US20200222372A1 (Ovid Therapeutics Inc., priority 2017, published 2020).

Assays:
[1] = system: onset of REM sleep; assay: Delay of onset of REM sleep after falling asleep in narcoleptic patient; assay type: in vivo, human (narcoleptic patient); conditions: 0.5 mg to 25 mg gaboxadol or salt
Protocol: As mentioned above, people with narcolepsy frequently abnormally enter REM sleep within 15 minutes of falling asleep. […] Without wishing to be bound by any theory, symptoms associated with narcolepsy such as cataplexy, sleep paralysis, hallucinations, and automatic behaviors closely mimic the natural physiologic response that occurs during REM sleep. By inducing a more normal REM sleep architecture in narcoleptic patients, symptoms associated with narcolepsy are reduced or alleviated. […] In embodiments, the delay of onset of REM sleep is about 30 minutes or longer. In embodiments, the delay of onset of REM sleep is about 45 minutes or longer. In embodiments, the delay of onset of REM sleep is about 60 minutes or longer. In embodiments, the delay of onset of REM sleep is about 75 minutes or longer.

[2] = human, in vivo

With Oc1noc2c1CCNC2 [gaboxadol, 4,5,6,7-tetrahydroisoxazolo [5,4-c] pyridine-3-ol] the “onset of REM sleep after falling asleep” value [1] was at least 30 min and the “CL for 10 mg IV (in CL/F row)” value [2] was 438 mL/min.
